Reference: patent US12692254B2, “Benzimidazole inhibitors of PAD enzymes” (BRISTOL-MYERS SQUIBB COMPANY, priority 2018, dated 2026)

The compounds below were run against human PAD4 (hPAD4) (Homo sapiens, UniProt Q9UM07) (assay: RFMS human PAD4 functional assay (rapid-fire mass spectrum)). Details: 5 nM hPAD4 enzyme, 250 μM BAEE, 50 μM Calcium; 30 min preincubation, 90 min reaction at 37° C.
Assay type: biochemical
Outline: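 PAD4 (10 nM) preincubated 30 min with compound (top final 50 μM), then BAEE substrate added in pH 7.5 HEPES buffer with DTT, 50 μM calcium, TPEN; 90 min at 37° C. After TCA quench, citrulline derivatized with phenyl glyoxal (4 mM final, 30 min, 37° C) and quantified by RapidFire MS against internal standard.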

Chain of human PAD4 (hPAD4) (Q9UM07 whole entry): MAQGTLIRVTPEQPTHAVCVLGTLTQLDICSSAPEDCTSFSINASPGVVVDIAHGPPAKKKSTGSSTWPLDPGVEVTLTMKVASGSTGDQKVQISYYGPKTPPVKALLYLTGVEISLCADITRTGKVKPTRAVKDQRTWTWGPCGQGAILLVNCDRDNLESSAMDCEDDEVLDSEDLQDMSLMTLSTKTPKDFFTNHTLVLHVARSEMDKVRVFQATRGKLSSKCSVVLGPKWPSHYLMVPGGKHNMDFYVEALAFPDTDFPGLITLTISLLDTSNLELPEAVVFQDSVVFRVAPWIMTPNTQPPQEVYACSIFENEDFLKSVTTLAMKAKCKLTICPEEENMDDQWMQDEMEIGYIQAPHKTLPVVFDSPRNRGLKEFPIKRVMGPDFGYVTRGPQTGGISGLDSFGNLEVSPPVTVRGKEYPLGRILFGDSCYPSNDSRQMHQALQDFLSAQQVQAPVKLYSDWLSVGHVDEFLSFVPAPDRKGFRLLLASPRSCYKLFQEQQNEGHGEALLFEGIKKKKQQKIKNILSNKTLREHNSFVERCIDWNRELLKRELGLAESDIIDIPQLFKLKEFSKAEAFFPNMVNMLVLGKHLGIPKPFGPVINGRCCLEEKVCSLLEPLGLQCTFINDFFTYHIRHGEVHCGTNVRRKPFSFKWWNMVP

Row | IC50 | Structure (SMILES)
1 | 20 nM | COc1cc(C(=O)N2CC3CCC2[C@@H]3N)cc2nc(-c3cc4cccnc4n3CC3CC3)n(Cc3cnn(-c4cccc(O)n4)c3)c12 (stereo partly drawn) [Example 353, 6-[4-({5-[(7R)-7-amino-2-azabicyclo[2.2.1]heptane-2-carbonyl]-2-[1-(cyclopropylmethyl)-1H-pyrrolo[2,3-b]pyridin-2-yl]-7-methoxy-1H-1,3-benzodiazol-1-yl}methyl)-1H-pyrazol-1-yl]pyridin-2-ol]
2 | 67 nM | COc1cc(C(=O)N2CC3CCC2[C@@H]3N)cc2nc(-c3cc4cccnc4n3CC3CC3)n(CC3CCN(c4ccnc(C)n4)CC3)c12 (some centres unmarked) [Example 219]
3 | 49 nM | COc1cc(C(=O)N2C[C@H](N)C[C@@H](F)C2)cc2nc(-c3cc4cccnc4n3CC3CC3)n(Cc3cnn(-c4ncc(F)cc4F)c3)c12 [Example 393, (3R,5R)-1-{2-[1-(cyclopropylmethyl)-1H-pyrrolo[2,3-b]pyridin-2-yl]-1-{[1-(3,5-difluoropyridin-2-yl)-1H-pyrazol-4-yl]methyl}-7-methoxy-1H-1,3-benzodiazole-5-carbonyl}-5-fluoropiperidin-3-amine]
4 | 39 nM | COc1cc(C(=O)N2CC3CCC2[C@@H]3N)cc2nc(-c3cc4cccnc4n3CC3CC3)n(CC3CN(C(=O)c4ccccc4F)C3)c12 (stereo partly drawn) [Example 442, (7R)-2-{2-[1-(cyclopropylmethyl)-1H-pyrrolo[2,3-b]pyridin-2-yl]-1-{[1-(2-fluorobenzoyl)azetidin-3-yl]methyl}-7-methoxy-1H-1,3-benzodiazole-5-carbonyl}-2-azabicyclo[2.2.1]heptan-7-amine]
5 | 21 nM | COc1cc(C(=O)N2CC3CCC2[C@@H]3N)cc2nc(-c3cc4ccccc4n3CC3CC3)n(CC3CN(C(=O)c4ccnc(C)c4)C3)c12 (stereo partly drawn) [Example 421, (7R)-2-{2-[1-(cyclopropylmethyl)-1H-indol-2-yl]-7-methoxy-1-{[1-(2-methylpyridine-4-carbonyl)azetidin-3-yl]methyl}-1H-1,3-benzodiazole-5-carbonyl}-2-azabicyclo[2.2.1]heptan-7-amine]
6 | 15 nM | COc1cncc(-n2cc(Cn3c(-c4cc5ccccc5n4CC4CC4)nc4cc(C(=O)N5CC6CCC5[C@@H]6N)cc(OC)c43)cn2)c1 (stereo partly drawn) [Example 349, (7R)-2-{2-[1-(cyclopropylmethyl)-1H-indol-2-yl]-7-methoxy-1-{[1-(5-methoxypyridin-3-yl)-1H-pyrazol-4-yl]methyl}-1H-1,3-benzodiazole-5-carbonyl)-2-azabicyclo[2.2.1]heptan-7-amine]
7 | 310 nM | CCS(=O)(=O)N1CC(Cn2c(-c3cc4cccnc4n3CC3CC3)nc3cc(C(=O)N4CC5CCC4[C@@H]5N)cc(OC)c32)C1 (stereo partly drawn) [Example 336, (1R,4R.,7R)-2-{2-[1-(cyclopropylmethyl)-1H-pyrrolo[2,3-b]pyridin-2-yl]-1-{[1-(ethanesulfonyl)azetidin-3-yl]methyl}-7-methoxy-1H-1,3-benzodiazole-5-carbonyl}-2-azabicyclo[2.2,1]heptan-7-amine]
8 | 25 nM | COc1cc(C(=O)N2CC3CCC2[C@@H]3N)cc2nc(-c3cc4ccccc4n3CC3CC3)n(Cc3cnn(-c4ccncc4)c3)c12 (some centres unmarked) [Example 362]
9 | 57 nM | COc1cc(C(=O)N2CC3CCC2[C@@H]3N)cc2nc(-c3cc4ccccc4n3CC3CC3)n(CC3CCS(=O)(=O)C3)c12 (stereo partly drawn) [Example 264, ((7R)-7-amino-2-azabicyclo[2.2.1]heptan-2-yl)(2-(1-(cyclopropylmethyl)-1H-indol-2-yl)-1-((1,1-dioxidotetrahydrothiophen-3-yl)methyl)-7-methoxy-1H-benzo[d]imidazol-5-yl)methanone]
10 | 44 nM | COc1cc(C(=O)N2C[C@H]3CC[C@@H]2[C@@H]3N)cc2nc(-c3cc4ccccc4n3CC3CC3)n(Cc3cnn(Cc4ccccc4)c3)c12 [Example 259, (1R,4R,7R)-2-{1-[(1-benzyl-1H-pyrazol-4-yl)methyl]-2-[1-(cyclopropylmethyl)-1H-indol-2-yl]-7-methoxy-1H-1,3-benzodiazole-5-carbonyl}-2-azabicyclo[2.2.1]heptan-7-amine]
11 | 1190 nM | COc1cc(C(=O)N2CC3CCC2[C@@H]3N)cc2nc(-c3cccn3CC3CC3)n(CC3CN(c4cncc(C#N)c4)C3)c12 (some centres unmarked) [Example 317]

Second part, the compound before the results:

Row | Structure (SMILES) | IC50
12 | COc1cc(C(=O)N2C[C@H]3CC[C@@H]2[C@@H]3N)cc2nc(-c3cc4cccnc4n3CC3CC3)n(CC3CN(c4ncccn4)C3)c12 [Example 30, (1R,4R,7R)-2-{2-[1-(cyclopropylmethyl)-1H-pyrrolo[2,3-b]pyridin-2-yl]-7-methoxy-1-{[1-(pyrimidin-2-yl)azetidin-3-yl]methyl}-1H-1,3-benzodiazole-5-carbonyl}-2-azabicyclo[2.2.1]heptan-7-amine] | 84 nM
13 | COc1cc(C(=O)N2CC3CCC2[C@@H]3N)cc2nc(-c3cc4ccccc4n3CC3CC3)n(CCc3cn[nH]c3)c12 (stereo partly drawn) [Example 508, (7R)-2-{2-[1-(cyclopropylmethyl)-1H-indol-2-yl]-7-methoxy-1-[2-(1H-pyrazol-4-yl)ethyl]-1H-1,3-benzodiazole-5-carbonyl}-2-azabicyclo[2.2.1]heptan-7-amine] | 289 nM
14 | COc1cc(C(=O)N2C[C@H](N)CC[C@@H]2C)cc2nc(-c3cc4cccnc4n3CC3CC3)n(CC3CN(C(=O)c4ccccc4)C3)c12 [Example 470, (3R,6S)-1-{1-[(1-benozylazetidin-3-yl)methyl]-2-[1-(cyclopropylmethyl)-1H-pyrrolo[2,3-b]pyridin-2-yl]-7-methoxy-1H-1,3-benzodiazole-5-carbonyl}-6-methylpiperidin-3-amine] | 177 nM
15 | COc1cc(C(=O)N2C[C@H](N)C[C@@H](F)C2)cc2nc(-c3cc4ccccc4n3CC3CC3)n(CC3(C)CN(C(=O)c4ccccc4)C3)c12 [Example 460, (3R,5R)-1-{1-[(1-benzoyl-3-methylazetidin-3-yl)methyl]-2-[1-(cyclopropylmethyl)-1H-indol-2-yl]-7-methoxy-1H-1,3-benzodiazole-5-carbonyl}-5-fluoropiperidin-3-amine] | 67 nM
16 | COc1cc(C(=O)N2C[C@H]3CC[C@@H]2[C@@H]3N)cc2nc(-c3cc4cccnc4n3CC3CC3)n(C[C@@H]3CCN(c4cncc(C#N)n4)C3)c12 [Example 207, 6-[(3R)-3-({5-[(1R,4R,7R)-7-amino-2-azabicyclo[2.2.1]heptane-2-carbonyl]-2-[1-(cyclopropylmethyl)-1H-pyrrolo[2,3-b]pyridin-2-yl]-7-methoxy-1H-1,3-benzodiazol-1-yl}methyl)pyrrolidin-1-yl]pyrazine-2-carbonitrile] | 57 nM
17 | COc1cc(C(=O)N2C[C@H]3CC[C@@H]2[C@@H]3N)cc2nc(-c3cc4cccnc4n3CC3CC3)n(C3CN(C(=O)c4ccnc(Cl)c4)C3)c12 [Example 98, (1R,4R,7R)-2-{1-[1-(2-chloropyridine-4-carbonyl)azetidin-3-yl]-2-[1-(cyclopropylmethyl)-1H-pyrrolo[2,3-b]pyridin-2-yl]-7-methoxy-1H-1,3-benzodiazole-5-carbonyl}-2-azabicyclo[2.2.1]heptan-7-amine] | 71 nM
18 | COc1cc(C(=O)N2CC3CCC2[C@@H]3N)cc2nc(-c3cc4ccccc4n3CC3CC3)n(CC3CN(C(=O)c4ncccn4)C3)c12 (stereo partly drawn) [Example 446, (7R)-2-{2-[1-(cyclopropylmethyl)-1H-indol-2-yl]-7-methoxy-1-{[1-(pyrimidine-2-carbonyl)azetidin-3-yl]methyl}-1H-1,3-benzodiazole-5-carbonyl}-2-azabicyclo[2.2.1]heptan-7-amine] | 43 nM
19 | COc1cc(C(=O)N2C[C@H]3CC[C@@H]2[C@@H]3N)cc2nc(-c3cc4ccccc4n3CC3CC3)n(CC3CN(C(=O)c4ccc(C(=O)O)cc4)C3)c12 [Example 151, 4-[3-({5-[(1R,4R,7R)-7-amino-2-azabicyclo[2.2.1]heptane-2-carbonyl]-2-[1-(cyclopropylmethyl)-1H-indol-2-yl]-7-methoxy-1H-1,3-benzodiazol-1-yl}methyl)azetidine-1-carbonyl]benzoic acid] | 20 nM
20 | COc1cc(C(=O)N2C[C@H]3CC[C@@H]2[C@@H]3N)cc2nc(-c3cc4cccnc4n3CC3CC3)n(CC3CN(c4cnccn4)C3)c12 [Example 74, (1R,4R,7R)-2-{2-[1-(cyclopropylmethyl)-1H-pyrrolo[2,3-b]pyridin-2-yl]-7-methoxy-1-{[1-(pyrazin-2-yl)azetidin-3-yl]methyl}-1H-1,3-benzodiazole-5-carbonyl}-2-azabicyclo[2.2.1]heptan-7-amine] | 210 nM
21 | COc1cc(C(=O)N2CC3CCC2[C@@H]3N)cc2nc(-c3cc4ccccc4n3CC3CC3)n(Cc3cnn(-c4cccnc4)c3)c12 (stereo partly drawn) [Example 368, (7R)-2-{2-[1-(cyclopropylmethyl)-1H-indol-2-yl]-7-methoxy-1-{[1-(pyridin-3-yl)-1H-pyrazol-4-yl]methyl}-1H-1,3-benzodiazole-5-carbonyl}-2-azabicyclo[2.2.1]heptan-7-amine] | 29 nM
22 | COc1cc(C(=O)N2C[C@H]3CC[C@@H]2[C@@H]3N)cc2nc(-c3cc4cccnc4n3CC3CC3)n(CC3CCN(C(=O)c4ccnc(F)c4)CC3)c12 [Example 197, (1R,4R,7R)-2-{2-[1-(cyclopropylmethyl)-1H-pyrrolo[2,3-b]pyridin-2-yl]-1-{[1-(2-fluoropyridine-4-carbonyl)piperidin-4-yl]methyl}-7-methoxy-1H-1,3-benzodiazole-5-carbonyl}-2-azabicyclo[2.2.1]heptan-7-amine] | 117 nM
23 | COc1cc(C(=O)N2C[C@H]3CC[C@@H]2[C@@H]3N)cc2nc(-c3cc4ccccc4n3C)n(CC3CN(c4cncc(C#N)c4)C3)c12 [Example 22, 5-[3-({5-[(1R,4R,7R)-7-amino-2-azabicyclo[2.2.1]heptane-2-carbonyl]-7-methoxy-2-(1-methyl-1H-indol-2-yl)-1H-1,3-benzodiazol-1-yl}methyl)azetidin-1-yl]pyridine-3-carbonitrile] | 60 nM
